Assay results: the NIST ThermoML archive (doi:10.1021/je300252d)
Numbers after ± are expanded uncertainties.

Assay: mn = molality of the nth substance listed, in mol/kg
Details: 100 kPa, Liquid, Direct current cell with electrodes

CCCC[N+](CCCC)(CCCC)CCCC.[Br-] [tetrabutylammonium bromide] + CN(C)C=O
Details | molar conductivity [S·m2/mol]
283.15 K, m1 = 9.197e-05 | 0.006236 ± 9.7e-06
283.15 K, m1 = 0.0002922 | 0.006141 ± 8.1e-06
283.15 K, m1 = 0.0004908 | 0.006078 ± 6.1e-06
283.15 K, m1 = 0.0006894 | 0.0060258 ± 4.7e-06
283.15 K, m1 = 0.001222 | 0.0059158 ± 4e-06
283.15 K, m1 = 0.00199 | 0.0057906 ± 3.3e-06
283.15 K, m1 = 0.002938 | 0.0056698 ± 2.9e-06
283.15 K, m1 = 0.003964 | 0.0055611 ± 2.4e-06
283.15 K, m1 = 0.005897 | 0.005399 ± 2.2e-06
283.15 K, m1 = 0.007916 | 0.0052571 ± 2e-06
283.15 K, m1 = 0.009885 | 0.0051385 ± 1.9e-06
283.15 K, m1 = 0.01187 | 0.0050378 ± 1.8e-06
288.15 K, m1 = 0.0002384 | 0.006641 ± 1e-05
288.15 K, m1 = 0.0003637 | 0.006588 ± 7.4e-06
288.15 K, m1 = 0.0005543 | 0.0065255 ± 6.3e-06
288.15 K, m1 = 0.0007699 | 0.0064657 ± 5e-06
288.15 K, m1 = 0.001232 | 0.0063637 ± 4.2e-06
288.15 K, m1 = 0.00201 | 0.0062266 ± 3.5e-06
288.15 K, m1 = 0.002974 | 0.0060937 ± 3.1e-06
288.15 K, m1 = 0.003946 | 0.005981 ± 2.6e-06
288.15 K, m1 = 0.005906 | 0.0058005 ± 2.3e-06
288.15 K, m1 = 0.007894 | 0.0056496 ± 2.1e-06
288.15 K, m1 = 0.009876 | 0.0055214 ± 2e-06
288.15 K, m1 = 0.01183 | 0.0054109 ± 1.9e-06
293.15 K, m1 = 0.000124 | 0.007196 ± 1.2e-05
293.15 K, m1 = 0.000358 | 0.007067 ± 9.5e-06
293.15 K, m1 = 0.0005617 | 0.006993 ± 7e-06
293.15 K, m1 = 0.0007496 | 0.0069356 ± 5.5e-06
293.15 K, m1 = 0.001203 | 0.006825 ± 4.6e-06
293.15 K, m1 = 0.001974 | 0.0066764 ± 3.8e-06
293.15 K, m1 = 0.002962 | 0.006528 ± 3.3e-06
293.15 K, m1 = 0.003941 | 0.0064046 ± 2.7e-06
293.15 K, m1 = 0.005913 | 0.0062071 ± 2.4e-06
293.15 K, m1 = 0.007899 | 0.0060446 ± 2.2e-06
293.15 K, m1 = 0.009903 | 0.0059059 ± 2e-06
293.15 K, m1 = 0.01185 | 0.0057855 ± 1.9e-06
298.15 K, m1 = 8.12e-05 | 0.00773 ± 1.3e-05
298.15 K, m1 = 0.0003247 | 0.007565 ± 1.2e-05
298.15 K, m1 = 0.0005335 | 0.007478 ± 7.7e-06
298.15 K, m1 = 0.000754 | 0.0074043 ± 6e-06
298.15 K, m1 = 0.001188 | 0.0072894 ± 4.9e-06
298.15 K, m1 = 0.001985 | 0.0071236 ± 4e-06
298.15 K, m1 = 0.002972 | 0.0069641 ± 3.4e-06
298.15 K, m1 = 0.003989 | 0.0068266 ± 2.9e-06
298.15 K, m1 = 0.005892 | 0.0066212 ± 2.6e-06
298.15 K, m1 = 0.007909 | 0.0064436 ± 2.3e-06
298.15 K, m1 = 0.009849 | 0.0062996 ± 2.1e-06
298.15 K, m1 = 0.0119 | 0.0061631 ± 2e-06
303.15 K, m1 = 0.0001279 | 0.008182 ± 1.3e-05
303.15 K, m1 = 0.0003737 | 0.008028 ± 1.2e-05
303.15 K, m1 = 0.0004937 | 0.007975 ± 8.1e-06
303.15 K, m1 = 0.0007203 | 0.0078909 ± 6.5e-06
303.15 K, m1 = 0.00121 | 0.0077502 ± 5.2e-06
303.15 K, m1 = 0.002013 | 0.0075724 ± 4.3e-06
303.15 K, m1 = 0.002974 | 0.0074063 ± 3.6e-06
303.15 K, m1 = 0.003957 | 0.0072634 ± 3e-06
303.15 K, m1 = 0.005917 | 0.0070358 ± 2.7e-06
303.15 K, m1 = 0.00787 | 0.0068512 ± 2.4e-06
303.15 K, m1 = 0.009823 | 0.0066956 ± 2.2e-06
303.15 K, m1 = 0.01184 | 0.0065521 ± 2.1e-06
308.15 K, m1 = 0.0001375 | 0.008672 ± 1.5e-05
308.15 K, m1 = 0.0003374 | 0.008537 ± 1.1e-05
308.15 K, m1 = 0.0005902 | 0.008422 ± 8.9e-06
308.15 K, m1 = 0.0007253 | 0.0083707 ± 6.6e-06
308.15 K, m1 = 0.001221 | 0.0082189 ± 5.5e-06
308.15 K, m1 = 0.002004 | 0.0080331 ± 4.5e-06
308.15 K, m1 = 0.002993 | 0.0078504 ± 3.8e-06
308.15 K, m1 = 0.003956 | 0.0077012 ± 3.2e-06
308.15 K, m1 = 0.005922 | 0.0074573 ± 2.8e-06
308.15 K, m1 = 0.007903 | 0.0072572 ± 2.5e-06
308.15 K, m1 = 0.009896 | 0.007088 ± 2.3e-06
308.15 K, m1 = 0.01189 | 0.0069381 ± 2.2e-06
313.15 K, m1 = 6.835e-05 | 0.009246 ± 1.6e-05
313.15 K, m1 = 0.0003232 | 0.009042 ± 1.3e-05
313.15 K, m1 = 0.0005979 | 0.008909 ± 9.5e-06
313.15 K, m1 = 0.0007057 | 0.0088651 ± 8e-06
313.15 K, m1 = 0.001228 | 0.0086936 ± 5.9e-06
313.15 K, m1 = 0.002045 | 0.0084879 ± 4.8e-06
313.15 K, m1 = 0.002992 | 0.0083023 ± 4e-06
313.15 K, m1 = 0.003971 | 0.0081415 ± 3.3e-06
313.15 K, m1 = 0.00585 | 0.0078927 ± 3e-06
313.15 K, m1 = 0.00787 | 0.0076738 ± 2.6e-06
313.15 K, m1 = 0.009873 | 0.0074917 ± 2.3e-06
313.15 K, m1 = 0.01189 | 0.007332 ± 2.2e-06
318.15 K, m1 = 9.782e-05 | 0.009714 ± 1.5e-05
318.15 K, m1 = 0.0003254 | 0.009541 ± 1.3e-05
318.15 K, m1 = 0.0005324 | 0.009434 ± 9.6e-06
318.15 K, m1 = 0.0007651 | 0.0093342 ± 7.7e-06
318.15 K, m1 = 0.001206 | 0.0091821 ± 6.2e-06
318.15 K, m1 = 0.001977 | 0.0089725 ± 5.1e-06
318.15 K, m1 = 0.002989 | 0.0087596 ± 4.3e-06
318.15 K, m1 = 0.003967 | 0.0085894 ± 3.5e-06
318.15 K, m1 = 0.005938 | 0.0083142 ± 3.1e-06
318.15 K, m1 = 0.007894 | 0.0080896 ± 2.7e-06
318.15 K, m1 = 0.009905 | 0.0078947 ± 2.5e-06
318.15 K, m1 = 0.01189 | 0.0077299 ± 2.3e-06
